# Data reported in patent US20220125837A1, “METHODS FOR CONTROLLED ELIMINATION OF THERAPEUTIC CELLS” (Bellicum Pharmaceuticals, Inc., priority 2014, published 2022).
# Where “and” joins values, the source holds several entries; their conditions need not be identical. Equal entries are not always repeated.
# Legend:
# [1] = system: gene-modified allodepleted cells (SFG.iCasp9.2A.CD19); experiment: Suicide gene function after extended culture and reactivation; assay type: cell-based, human
# Protocol: Cells were maintained in T cell medium containing 50 U/ml IL-2 until 22 days after transduction. A portion of cells was reactivated on 24-well plates coated with […] OKT3 and 1 μg/ml anti-CD28 (Clone CD28.2, BD Pharmingen, San Jose, Calif.) for 48 to 72 hours. CD19 expression and suicide gene function in both reactivated and non-reactivated cells were measured on day 24 or 25 post transduction.
# To assess the stability of transgene expression and function, cells were maintained in T cell culture medium and low dose IL-2 (50 U/ml) until […] after transduction. A portion of cells was then reactivated with OKT3/anti-CD28. CD19 expression was analyzed by flow cytometry 48 to 72 hours later, and suicide gene function was assessed by treatment with 10 nM AP20187. The obtained are for cells from day 5 post transduction (ie, 1 day after CD 19 selection) and day 24 post transduction, with or without 48-72 hours of reactivation (5 experiments). In 2 experiments, CD25 selection was performed after OKT3/aCD28 activation to further enrich activated cells. Error bars represent standard deviation. * indicates p<0.05 when compared to cells from day 5 post transduction. By day 24, surface CD19 expression fell from about 98%±1% to about 88%±4% (p<0.05) with a parallel decrease in mean fluorescence intensity (MFI) from 793±128 to 478±107 (p<0.05) (see FIG. 13B). Similarly, there was a significant reduction in suicide gene function: residual viability was 19.6±5.6% following treatment with AP20187; after correction for baseline viability of 54.8±20.9%, this equated to killing efficiency of only 63.1±6.2%.
# To determine whether the decrease in transgene expression with time was due to reduced transcription following T cell quiescence or to elimination of transduced cells, a portion of cells were reactivated on day 22 post transduction with OKT3 and anti-CD28 antibody. […] CD19 expression increased from about 88%±4% to about 93%±4% (p<0.01) and CD19 MFI increased from 478±107 to 643±174 (p<0.01). […] 2±1.2%, which was the same as killing efficiency on day 5 post transduction (93.1±3.5%). Killing of the CD25 negative fraction was 78.6±9.1%.
# [2] = system: iCasp9M.IRES.GFPhigh-transduced CTLs; experiment: SCID mouse-human xenograft: elimination of iCasp9M CTLs by CID; assay type: in vivo, NOD/SCID mice; conditions: single dose of CID (50 μg AP20187 intraperitoneally), three days after
# Protocol: Non-obese diabetic severe combined immunodeficient (NOD/SCID) mice, 6 to 8 weeks of age, were irradiated (250 rad) and injected subcutaneously in the right flank with 10×10^6 to 15×10^6 LCLs resuspended in Matrigel (BD Bioscience). Two weeks later mice bearing tumors that were approximately 0.5 cm in diameter were injected into the tail vein with a 1:1 mixture of nontransduced and iCasp9.I.GFPhigh-transduced EBV CTLs (total 15×10^6). At 4 to 6 hours prior and 3 days after CTL infusion, mice were injected intraperitoneally with recombinant hIL-2 (2000 U; Proleukin; Chiron). […] By FACS analysis, the number of GFP+ cells within the gated CD3^+ population was evaluated. […]
# The function of iCasp9M also was evaluated in transduced EBV-CTLs in vivo. […] Three days after CID/carrier administration, tumors were analyzed for human CD3^+/GFP^+ cells. […]
# The function of iCasp9M in vivo, was assayed. […] On day 3 after CTL administration, mice received either CID (50 μg AP20187; (black diamonds, n=6) or carrier only (black squares, n=5) and on day 6 the presence of human CD3+/GFP+ T cells in the tumors was analyzed. Human CD3+ T cells isolated from the tumors of a control group of mice that received only nontransduced CTLs (15×10^6 CTLs; n=4) were used as a negative control for the analysis of CD3+/GFP+ T cells within the tumors.
# virus-specific T cells = experiment: AP20187 on allostimulated gene-modified cells, pentamer analysis of virus-specific T cells; assay type: cell-based, human; conditions: 10 nM; after 4 days reactivation with allogeneic PBMC
# Protocol: In some experiments, cells also were cultured for 3 weeks post transduction and stimulated with 30G-irradiated allogeneic PBMC at a responder:stimulator ratio of 1:1. After 4 days of co-culture, a portion of cells was treated with 10 nM AP20187. Killing was measured by annexin V/7-AAD staining at 24 hours, and the effect of dimerizer on bystander virus-specific T cells was assessed by pentamer analysis on AP20187-treated and untreated cells.
# An observation of note was that many virus-specific T cells were spared when dimerizer was used to deplete gene-modified cells that have been re-activated with allogeneic PBMC, rather than by non-specific mitogenic stimuli. […] Gene-modified allodepleted cells were maintained in culture for 3 weeks post-transduction to allow transgene down-modulation. Cells were stimulated with allogeneic PBMC for 4 days, following which a portion was treated with 10 nM AP20187.
# The frequency of EBV-specific T cells and CMV-specific T cells were quantified by pentamer analysis before allostimulation, after allostimulation, and after treatment of allostimulated cells with dimerizer. The percentage of virus-specific T cells decreased after allostimulation. Following treatment with dimerizer, virus-specific T cells were partially and preferentially retained.
smiles,measurement,setting,value
CC[C@H](C(=O)N1CCCC[C@H]1C(=O)O[C@H](CCc1ccc(OC)c(OC)c1)c1cccc(OCC(=O)NCC(CNC(=O)COc2cccc([C@@H](CCc3ccc(OC)c(OC)c3)OC(=O)[C@@H]3CCCCN3C(=O)[C@@H](CC)c3cc(OC)c(OC)c(OC)c3)c2)CN(C)C)c1)c1cc(OC)c(OC)c(OC)c1 [AP20187],killing,[1]; CD25 negative fraction,78.6±9.1%
same,killing efficiency,"[1]; OKT3/aCD28-reactivated cells, day 24 or 25",~84.6%±8.0%
same,killing efficiency,[1]; day 5 post transduction,93.1±3.5%
same,killing efficiency,"[1]; day 24 post transduction, non-reactivated",63.1±6.2% and ~63.1%±6.2%
same,residual viability following treatment with AP20187,"[1]; day 24 post transduction, non-reactivated, 10 nM",19.6±5.6%
same,reduction in the number of human CD3+/GFP+ T cells in tumors vs carrier,[2]; listed as CID,> 99%
same,reduction in the number of human CD3+/GFP+ T cells in tumors vs carrier,[2]; listed as dimerizer,more than 99%
same,effect on virus-specific T cells,virus-specific T cells,spares (and thereby enriches) viral reactive subpopulations
